The values that follow come from ChEMBL document CHEMBL1127385, “Synthesis and diuretic activity of alkyl- and arylguanidine analogs of N,N'-dicyclohexyl-4-morpholinecarboxamidine in rats and dogs” (J Med Chem, 1994).

For series [1], the system named is Rattus norvegicus. As to the kind of experiment: Tested for the diuretic activity by measuring the urinary volume after peroral administering 282 uM/Kg of drug in rats. In kind it is ADME, organism-based, Urine. The note with it: in vivo, po.
The subject of series [2] is Rattus norvegicus. As to the kind of experiment: Total electrolytic excretion of sodium in urine of rats after peroral administration of 84.5 uM/Kg of drug. The format is ADME, organism-based. The conditions noted are these: in vivo, po.
In series [3] the test system is Rattus norvegicus. The series can be described thus: Ratio of Total electrolytic excretion of sodium and potassium in urine of rats after peroral administration of 282 uM/Kg of drug. The format is ADME, organism-based. The note with it: in vivo, po.
For series [4], the system named is Rattus norvegicus. As to the kind of experiment: Tested for the diuretic activity by measuring the urinary volume after peroral administering 28.2 uM/Kg of drug in rats. In kind it is ADME, organism-based, Urine. The conditions noted are these: in vivo, po.
The subject of series [5] is Rattus norvegicus. The series can be described thus: Total electrolytic excretion of sodium in urine of rats after peroral administration of 282 uM/Kg of drug. In kind it is ADME, organism-based. The conditions noted are these: in vivo, po.
Series [6] deals with Rattus norvegicus. The series can be described thus: Ratio of Total electrolytic excretion of sodium and potassium in urine of rats after peroral administration of 28.2 uM/Kg of drug. The note with it: in vivo, po. In kind it is ADME, organism-based.
Series [7] has as its system Rattus norvegicus. The series can be described thus: Tested for the diuretic activity by measuring the urinary volume after peroral administering 84.5 uM/Kg of drug in rats. In kind it is ADME, organism-based, Urine. The note with it: in vivo, po.
For series [8], the system named is Rattus norvegicus. The series can be described thus: Total electrolytic excretion of potassium in urine of rats after peroral administration of 282 uM/Kg of drug. In kind it is ADME, organism-based. The note with it: in vivo, po.
Series [9] has as its system Rattus norvegicus. The series can be described thus: Total electrolytic excretion of chlorine in urine of rats after peroral administration of 282 uM/Kg of drug. In kind it is ADME, organism-based. The conditions noted are these: in vivo, po.
Series [10] relates to Rattus norvegicus. The series can be described thus: Ratio of Total electrolytic excretion of sodium and potassium in urine of rats after peroral administration of 84.5 uM/Kg of drug. In kind it is ADME, organism-based. The conditions noted are these: in vivo, po.
Series [11] relates to Rattus norvegicus. As to the kind of experiment: Total electrolytic excretion of chlorine in urine of rats after peroral administration of 84.5 uM/Kg of drug. In kind it is ADME, organism-based. The conditions noted are these: in vivo, po.
The subject of series [12] is Rattus norvegicus. As to the kind of experiment: Total electrolytic excretion of potassium in urine of rats after peroral administration of 28.2 uM/Kg of drug. The format is ADME, organism-based. The conditions noted are these: in vivo, po.
The test system of series [13] is Rattus norvegicus. As to the kind of experiment: Total electrolytic excretion of sodium in urine of rats after peroral administration of 28.2 uM/Kg of drug. The format is ADME, organism-based. The note with it: in vivo, po.
Series [14] concerns Rattus norvegicus. The series can be described thus: Total electrolytic excretion of chlorine in urine of rats after peroral administration of 28.2 uM/Kg of drug. The format is ADME, organism-based. The conditions noted are these: in vivo, po.
In series [15] the test system is Rattus norvegicus. As to the kind of experiment: Total electrolytic excretion of potassium in urine of rats after peroral administration of 84.5 uM/Kg of drug. The format is ADME, organism-based. The conditions noted are these: in vivo, po.
Series [16] deals with Rattus norvegicus. The series can be described thus: Ratio of Total electrolytic excretion of sodium and potassium in urine of rats after peroral administration of 84.7 uM/Kg of drug. The note with it: in vivo, po. The format is ADME, organism-based.
In series [17] the test system is Canis familiaris. As to the kind of experiment: Tested for the diuretic activity by measuring the urinary volume after intravenous administering 8.47 uM/Kg of drug in dogs. In kind it is ADME, organism-based, Canis lupus familiaris, Urine. The conditions noted are these: dog, in vivo.
The test system of series [18] is Canis familiaris. The series can be described thus: Total electrolytic excretion of chlorine in urine of dogs after intravenous administration of 8.47 uM/Kg of drug. The format is ADME, organism-based, Canis lupus familiaris. The note with it: dog, in vivo.
In series [19] the test system is Canis familiaris. As to the kind of experiment: Total electrolytic excretion of potassium in urine of dogs after intravenous administration of 8.47 uM/Kg of drug. The note with it: dog, in vivo. In kind it is ADME, organism-based, Canis lupus familiaris.
Series [20] relates to Rattus norvegicus. As to the kind of experiment: Ratio of Total electrolytic excretion of sodium and potassium in urine of rats after intravenous administration of 8.47 uM/Kg of drug. The format is ADME, organism-based. The conditions noted are these: in vivo.
Series [21] has as its system Rattus norvegicus. The series can be described thus: Total electrolytic excretion of chlorine in urine of rats after peroral administration of 84.7 uM/Kg of drug. In kind it is ADME, organism-based. The note with it: in vivo, po.
For series [22], the system named is Rattus norvegicus. The series can be described thus: Total electrolytic excretion of potassium in urine of rats after peroral administration of 84.7 uM/Kg of drug. In kind it is ADME, organism-based. The note with it: in vivo, po.
Series [23] relates to Canis familiaris. As to the kind of experiment: Total electrolytic excretion of sodium in urine of dogs after intravenous administration of 8.47 uM/Kg of drug. In kind it is ADME, organism-based, Canis lupus familiaris. The note with it: dog, in vivo.
Series [24] concerns Rattus norvegicus. As to the kind of experiment: Tested for the diuretic activity by measuring the urinary volume after peroral administering 84.7 uM/Kg of drug in rats. The format is ADME, organism-based, Urine. The conditions noted are these: in vivo, po.
Series [25] deals with Rattus norvegicus. The series can be described thus: Total electrolytic excretion of sodium in urine of rats after peroral administration of 84.7 uM/Kg of drug. The conditions noted are these: in vivo, po. In kind it is ADME, organism-based.
Series [26] deals with Rattus norvegicus. The series can be described thus: Total electrolytic excretion of potassium in urine of rats after peroral administration of 28.22 uM/Kg of drug. The format is ADME, organism-based. The note with it: in vivo, po.
Series [27] has as its system Rattus norvegicus. The series can be described thus: Total electrolytic excretion of chlorine in urine of rats after peroral administration of 28.22 uM/Kg of drug. In kind it is ADME, organism-based. The conditions noted are these: in vivo, po.

Each structure is given as a SMILES string.

Turning to `C1CCC(/N=C(/NC2CCCCC2)N2CCCCC2)CC1`, the results for the V in the series with Rattus norvegicus [1], with Rattus norvegicus [4] and in the series with Rattus norvegicus [7] were 3.7 mL, 6.5 mL and 7.4 mL, respectively. The “Excretion Na+” value in the series on Rattus norvegicus [2] was 1.33 m equiv; with Rattus norvegicus [5], 0.76 m equiv; in the series on Rattus norvegicus [13] it was 1.13 m equiv. The Ratio in the series on Rattus norvegicus [3] was determined as 3.7; in the series with Rattus norvegicus [6], 4; in the series with Rattus norvegicus [10], 3.8. For the same compound, the “Excretion K+” value is recorded as 0.21 m equiv with Rattus norvegicus [8], 0.29 m equiv in the series with Rattus norvegicus [12] and 0.35 m equiv in the series with Rattus norvegicus [15]. Also, the results for the “Excretion Cl-” value in the series on Rattus norvegicus [9], in the series on Rattus norvegicus [11] and in the series on Rattus norvegicus [14] were 0.77 m equiv, 1.46 m equiv and 1.18 m equiv, respectively.

For `Fc1ccc(/N=C(/Nc2ccc(F)cc2)N2CCOCC2)cc1`, the Ratio in the series on Rattus norvegicus [16] is listed as 4; in the series on Rattus norvegicus [20], 5.7; in the series with Rattus norvegicus [3], 8.5; with Rattus norvegicus [6] it was 3.3. In addition, the V in the series on Canis familiaris [17] amounted to 58 mL; in the series on Rattus norvegicus [1], 16.2 mL; with Rattus norvegicus [4] it was 9.2 mL; with Rattus norvegicus [24] it was 13.6 mL. The “Excretion Cl-” value stood at 5.7 m equiv in the series on Canis familiaris [18], 1.82 m equiv in the series with Rattus norvegicus [21], 1.32 m equiv in the series on Rattus norvegicus [27] and 1.7 m equiv with Rattus norvegicus [9]. In addition, the “Excretion K+” value in the series with Canis familiaris [19] worked out at 1.1 m equiv; in the series on Rattus norvegicus [22], 0.48 m equiv; in the series with Rattus norvegicus [26] it was 0.39 m equiv; with Rattus norvegicus [8], 0.24 m equiv. Also, the “Excretion Na+” value with Rattus norvegicus [5] turned out to be 2.05 m equiv; in the series with Canis familiaris [23], 6 m equiv; in the series on Rattus norvegicus [25], 1.9 m equiv; in the series with Rattus norvegicus [13] it was 1.29 m equiv.
